Source: article PMC11945486, “TAS1R2/TAS1R3 Single-Nucleotide Polymorphisms Affect Sweet Taste Receptor Activation by Sweeteners: The SWEET Project” (Nutrients, 2025)
No end group written: not given here.

T1: human TAS1R2-P21L/TAS1R3-WT (Homo sapiens, UniProt Q7RTX0+Q8TE23, P21L)
T1 construct: expressed in transfected cells; host or cells: HEK293T-Gα16gust44
T1 sequence (Q8TE23 20-839 P21L): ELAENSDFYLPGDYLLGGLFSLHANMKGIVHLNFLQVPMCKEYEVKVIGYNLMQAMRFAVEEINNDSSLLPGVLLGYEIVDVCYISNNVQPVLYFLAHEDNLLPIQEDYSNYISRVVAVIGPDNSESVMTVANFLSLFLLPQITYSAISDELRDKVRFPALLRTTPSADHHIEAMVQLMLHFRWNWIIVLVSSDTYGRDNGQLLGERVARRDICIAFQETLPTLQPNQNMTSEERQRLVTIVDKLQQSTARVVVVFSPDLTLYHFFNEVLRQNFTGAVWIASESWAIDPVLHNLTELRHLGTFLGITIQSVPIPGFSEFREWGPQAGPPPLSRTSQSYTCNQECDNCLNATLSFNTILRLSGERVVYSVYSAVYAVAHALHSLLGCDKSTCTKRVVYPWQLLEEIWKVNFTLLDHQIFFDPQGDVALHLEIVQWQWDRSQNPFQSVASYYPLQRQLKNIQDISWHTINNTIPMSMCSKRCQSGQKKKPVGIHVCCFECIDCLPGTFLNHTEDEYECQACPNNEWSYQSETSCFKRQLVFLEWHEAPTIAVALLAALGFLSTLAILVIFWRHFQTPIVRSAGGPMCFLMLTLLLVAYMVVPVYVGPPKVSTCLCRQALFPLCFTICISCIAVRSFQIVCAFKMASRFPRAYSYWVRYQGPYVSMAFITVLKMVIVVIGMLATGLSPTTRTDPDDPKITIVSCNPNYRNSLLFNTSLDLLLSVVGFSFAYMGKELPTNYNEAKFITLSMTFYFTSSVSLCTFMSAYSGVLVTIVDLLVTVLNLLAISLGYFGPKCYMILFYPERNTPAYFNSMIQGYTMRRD
T1 sequence (Q7RTX0 21-852): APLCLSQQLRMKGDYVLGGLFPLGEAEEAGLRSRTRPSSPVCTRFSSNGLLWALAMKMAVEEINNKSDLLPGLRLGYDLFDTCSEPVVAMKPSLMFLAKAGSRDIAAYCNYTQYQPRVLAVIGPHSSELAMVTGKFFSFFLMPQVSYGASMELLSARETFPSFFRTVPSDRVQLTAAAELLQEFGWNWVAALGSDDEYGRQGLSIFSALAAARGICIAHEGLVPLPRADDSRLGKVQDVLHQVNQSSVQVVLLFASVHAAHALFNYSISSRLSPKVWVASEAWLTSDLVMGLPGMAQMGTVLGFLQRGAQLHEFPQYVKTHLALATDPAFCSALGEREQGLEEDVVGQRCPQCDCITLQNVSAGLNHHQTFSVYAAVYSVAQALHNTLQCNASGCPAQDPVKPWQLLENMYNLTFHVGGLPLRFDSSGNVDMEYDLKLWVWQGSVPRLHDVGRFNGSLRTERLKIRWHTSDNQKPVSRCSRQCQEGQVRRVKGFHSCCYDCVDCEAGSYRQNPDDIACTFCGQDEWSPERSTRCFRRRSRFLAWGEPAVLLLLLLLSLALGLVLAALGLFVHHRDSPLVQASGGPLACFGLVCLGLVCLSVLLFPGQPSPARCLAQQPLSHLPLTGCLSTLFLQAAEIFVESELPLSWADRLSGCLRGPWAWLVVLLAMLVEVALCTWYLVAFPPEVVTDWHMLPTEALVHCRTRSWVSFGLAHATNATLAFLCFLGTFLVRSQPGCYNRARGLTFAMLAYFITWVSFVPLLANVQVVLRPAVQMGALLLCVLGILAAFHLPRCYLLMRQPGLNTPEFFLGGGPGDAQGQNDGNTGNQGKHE


Molecular target: T1, human TAS1R2-P21L/TAS1R3-WT
Assay: Calcium mobilisation assay, TAS1R2 variant P21L with TAS1R3-WT
Format: cell-based
Conditions: for Max ΔF/F0: maximal signal amplitude
Excerpt: The coding sequences for TAS1R2 and TAS1R3 were commercially synthesised, and the human codon was optimised for expression in human cells. The coding sequences of human TAS1R2 and TAS1R3 were subcloned and inserted into the mammalian expression vectors pcDNA6/myc-HisA and pcDNA4/myc-HisA (Invitrogen; Thermo Fisher Scientific; Illkirch, France) between the EcoRI and NotI restriction sites, generating the plasmids pcDNA6-TAS1R2 and pcDNA4-TAS1R3, respectively. To increase protein expression in mammalian cells, an upstream start codon was used, which was a sequence called MAX, corresponding to the QBI SP163 element also described in pcDNA4-HisMax (Invitrogen; Thermo Fisher Scientific; Illkirch, France). To measure the expression level of the receptor by immunohistochemistry, we used the FLAG sequence ([…]) in the C-terminal position, which encodes the FLAG tag epitope. SNP variants of TAS1R2 and TAS1R3 were constructed based on […], respectively, using site-directed mutagenesis (Genewiz; Leipzig, Germany).
The HEK293T cells were kindly provided by Jay P. Slack (Givaudan Flavors Corporation; Cincinnati, OH, USA). HEK293T cells stably transfected with Gα16gust44 [43, 67] were seeded in poly-D-lysine-coated clear-bottom black 96-well plates (0.35 × 10^5 cells/well) in high-glucose DMEM supplemented with 2 mM GlutaMAX, 10% dialysed foetal bovine serum with penicillin/streptomycin and G418 (400 μg/mL) at 37 °C and 6.3% CO2 in a humidified atmosphere as previously reported. […] As a negative control, HEK293T cells were mock-transfected with the empty expression vector. After a further 24 h of incubation, the HEK293T cells were washed with C1 buffer (130 mM NaCl, 5 mM KCl, 10 mM HEPES pH 7.4 and 2 mM CaCl2). The 96-well plates containing the cells were then stimulated with sweet-tasting compounds. […] Different concentration ranges were tested depending on the sweet compound injected. The Ca^2+ changes were expressed as fractional changes in fluorescent light intensity: ΔF/F = (F − F0)/F0, where F was the fluorescent light intensity at each point, and F0 was the value of emitted fluorescent light prior to stimulus application. To calculate dose–response relationships, the changes in fluorescence upon stimulus application were averaged, mock-subtracted and baseline-corrected. The dose–response data obtained were adjusted using a 4-parameter logistic equation. The half-maximal effective concentrations (EC50 values) and maximal signal amplitudes were calculated using SigmaPlot software (version 15.0) (Systat Software; San Jose, CA, USA).
For in vitro calcium mobilisation assay performed on hTAS1R2-SNPs, hTAS1R3-SNPs and mTAS1R3-I60T, 6 to 7 concentrations were tested for each sweet compound, plus buffer alone. All concentration–receptor combinations were measured in duplicate, and each experiment was repeated at least 4 times (8 wells/concentration). Results were expressed for each concentration as ΔF/F mean ± SEM and represented as dose–response curves.

| Molecule | EC50 | R1 = Variant EC50/WT EC50 | Max ΔF/F0 |
| --- | --- | --- | --- |
| CC1=CC(=O)NS(=O)(=O)O1 [Acesulfame K, acesulfame K] | 374 ± 11 µM | 0.5 | 0.24 ± 0.01 |
| O=S(=O)(O)NC1CCCCC1 [Cyclamate, cyclamate] | 2110 ± 55 µM |  |  |
| C[C@H](CC[C@@H](O[C@@H]1O[C@H](CO[C@@H]2O[C@H](CO)[C@@H](O)[C@H](O)[C@H]2O)[C@@H](O)[C@H](O)[C@H]1O[C@@H]1O[C@H](CO)[C@@H](O)[C@H](O)[C@H]1O)C(C)(C)O)[C@H]1CC[C@@]2(C)[C@@H]3CC=C4[C@@H](CC[C@H](O[C@@H]5O[C@H](CO[C@@H]6O[C@H](CO)[C@@H](O)[C@H](O)[C@H]6O)[C@@H](O)[C@H](O)[C@H]5O)C4(C)C)[C@]3(C)[C@H](O)C[C@]12C [Mogroside V, mogroside V] | 19.9 ± 1.1 µM | 1.2 | 1.18 ± 0.02 |
| COc1ccc(CCC(=O)c2c(O)cc(O[C@@H]3O[C@H](CO)[C@@H](O)[C@H](O)[C@H]3O[C@@H]3O[C@@H](C)[C@H](O)[C@@H](O)[C@H]3O)cc2O)cc1O [NHDC, neohesperidin dihydrochalcone] | 100 ± 5.1 µM | 1.3 | 0.81 ± 0.02 |
| COC(=O)[C@H](Cc1ccccc1)NC(=O)[C@H](CC(=O)O)NCCC(C)(C)C [Neotame] | 0.67 ± 0.16 µM | 0.8 | 0.53 ± 0.04 |
| C=C(C)[C@@H]1CC=C(/C=N/O)CC1 [Perillartine, perillartine] | 26.3 ± 1.1 µM | 1.5 | 1.35 ± 0.03 |
| C=C1C[C@@]23CC[C@H]4[C@@](C)(CCC[C@@]4(C)C(=O)O[C@@H]4O[C@H](CO)[C@@H](O)[C@H](O[C@@H]5O[C@H](CO)[C@@H](O)[C@H](O)[C@H]5O)[C@H]4O[C@@H]4O[C@H](CO)[C@@H](O)[C@H](O)[C@H]4O)[C@@H]2CC[C@]1(O[C@@H]1O[C@H](CO)[C@@H](O)[C@H](O[C@@H]2O[C@H](CO)[C@@H](O)[C@H](O)[C@H]2O)[C@H]1O[C@@H]1O[C@H](CO)[C@@H](O)[C@H](O)[C@H]1O)C3 [Rebaudioside M, rebaudioside M] | 19.5 ± 0.9 µM | 1.2 | 0.99 ± 0.02 |
| OC[C@H]1O[C@H](O[C@]2(CCl)O[C@H](CCl)[C@@H](O)[C@@H]2O)[C@H](O)[C@@H](O)[C@H]1Cl [Sucralose] | 80 ± 13 µM | 0.9 | 0.50 ± 0.03 |
| brazzein (QDKCKKVYENYPVSKCQLANQCNYDCKLDKHARSGECFYDEKRNLQCICDYCEY; ends and bridges not checked; cysteine pairing not given here; UniProt P56552 1-54, looked up) [sweet-tasting protein obtained by recombinant production using the yeast Pichia pastoris] |  | 1.1 | 1.09 ± 0.01 |
| thaumatin |  | 0.4 | 0.19 ± 0.04 |
| thaumatin (protein, Eight disulfides, sweet-tasting plant protein, E957) ATFEIVNRCSYTVWAAASKGDAALDAGGRQLNSGESWTINVEPGTKGGKIWARTDCYFDDSGSGICKTGDCGGLLRCKRFGRPPTTLAEFSLNQYGKDYIDISNIKGFNVPMDFSPTTRGCRGVRCAADIVGQCPAKLKAPGGGCNDACTVFQTSEYCCTTGKCGPTEYSRFFKRLCPDAFSYVLDKPTTVTCPGSSNYRVTFCPTA | 3.3 µM |  |  |
